PubChem BioAssay (NCI)
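Values below derive from 48-hour exposures of cells grown in 96-well plates, with endpoints linearly interpolated between the two concentrations bracketing the appropriate inhibition level. TGI is the concentration that stops growth completely.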

Key:
Test in all cases: NCI tumour cell line growth inhibition, 48 h
[1] = test system: NCI-H460 lung
[2] = test system: M14 melanoma
[3] = test system: UO-31 renal
[4] = test system: ACHN renal
[5] = test system: NCI/ADR-RES ovarian
[6] = test system: MDA-MB-231 breast
[7] = test system: NCI-H23 lung
[8] = test system: BT-549 breast
[9] = test system: SK-MEL-5 melanoma
[10] = test system: HCT-116 colon
[11] = test system: SK-MEL-2 melanoma
[12] = test system: OVCAR-5 ovarian
[13] = test system: TK-10 renal
[14] = test system: OVCAR-4 ovarian
[15] = test system: SF-295 CNS
[16] = test system: CAKI-1 renal
[17] = test system: SF-268 CNS
[18] = test system: HOP-92 NSCLC
[19] = test system: RPMI-8226 leukemia
[20] = test system: HL-60(TB) leukemia

| Structure (SMILES) | TGI [1] [µM] | TGI [2] [µM] | TGI [3] [µM] | TGI [4] [µM] | TGI [5] [µM] | TGI [6] [µM] | TGI [7] [µM] | TGI [8] [µM] | TGI [9] [µM] | TGI [10] [µM] | TGI [11] [µM] | TGI [12] [µM] | TGI [13] [µM] | TGI [14] [µM] | TGI [15] [µM] | TGI [16] [µM] | TGI [17] [µM] | TGI [18] [µM] | TGI [19] [µM] | TGI [20] [µM] |
| --- | --- | --- | --- | --- | --- | --- | --- | --- | --- | --- | --- | --- | --- | --- | --- | --- | --- | --- | --- | --- |
| Cc1cc2nn(C3CCCCO3)nc2cc1C (configuration not stated) | > 100 | > 100 | > 100 | > 100 | > 100 | > 100 | > 100 | > 100 | > 100 | > 100 | > 100 | > 100 | > 100 | > 100 | > 100 | > 100 | > 100 | – | – | – |
| Cn1cc(S(=O)(=O)NC(=O)Nc2ccc(Cl)cc2)c(=O)c2ccc(Cl)cc21 | > 100 | > 100 | > 100 | > 100 | > 100 | > 100 | > 100 | > 100 | > 100 | > 100 | > 100 | > 100 | > 100 | > 100 | > 100 | > 100 | > 100 | – | – | – |
| COc1cc(C(=O)O)cc2c1[nH]c1ccccc12 | > 25 | > 25 | > 25 | > 25 | – | – | – | – | > 25 | > 25 | > 25 | > 25 | > 25 | > 25 | – | – | > 25 | > 25 | > 25 | > 25 |
| Nc1nc(N)c2c(CCc3ccc(C(=O)N[C@@H](CCC(=O)O)C(=O)O)cc3)ccnc2n1 | > 100 | > 100 | > 100 | > 100 | > 100 | > 100 | > 100 | – | > 100 | > 100 | > 100 | > 100 | > 100 | > 100 | > 100 | > 100 | > 100 | > 100 | > 100 | > 100 |
| S=C(Nc1ccc(Cl)cc1)c1ccc(CN2CCCCC2)s1 | 21.9 | 26.7 | 31.9 | 60.2 | > 100 | – | 8.63 | 79.3 | 15.1 | 25.5 | > 100 | 32.1 | – | 80.7 | – | 52.1 | > 100 | – | 20.2 | 6.97 |
| COc1ccc2c(c1)CC[C@@H]1C2CC[C@]2(C)C(=N\O)/C(=N/O)CC12 (some centres not stated) | 12.5 | 32.9 | 26.5 | 33.6 | – | – | 23.1 | – | 25.7 | 29.5 | 26.9 | 25.8 | 41.2 | – | 23.9 | 24.1 | 37.8 | 30.6 | 35.2 | 35.7 |
| CCOc1cc(/C=N\O)cc(/C=N/O)c1O | > 100 | > 100 | – | 59.4 | > 100 | > 100 | > 100 | – | 39.5 | > 100 | 41 | > 100 | > 100 | > 100 | > 100 | 61.1 | 64.1 | 60.4 | > 100 | > 100 |
